Assay results reported in article PMC12102218 (Nature Communications, 2025).

Biological target: T1, ENPP1 (Homo sapiens, UniProt P22413)
T1 sequence (P22413 1-925): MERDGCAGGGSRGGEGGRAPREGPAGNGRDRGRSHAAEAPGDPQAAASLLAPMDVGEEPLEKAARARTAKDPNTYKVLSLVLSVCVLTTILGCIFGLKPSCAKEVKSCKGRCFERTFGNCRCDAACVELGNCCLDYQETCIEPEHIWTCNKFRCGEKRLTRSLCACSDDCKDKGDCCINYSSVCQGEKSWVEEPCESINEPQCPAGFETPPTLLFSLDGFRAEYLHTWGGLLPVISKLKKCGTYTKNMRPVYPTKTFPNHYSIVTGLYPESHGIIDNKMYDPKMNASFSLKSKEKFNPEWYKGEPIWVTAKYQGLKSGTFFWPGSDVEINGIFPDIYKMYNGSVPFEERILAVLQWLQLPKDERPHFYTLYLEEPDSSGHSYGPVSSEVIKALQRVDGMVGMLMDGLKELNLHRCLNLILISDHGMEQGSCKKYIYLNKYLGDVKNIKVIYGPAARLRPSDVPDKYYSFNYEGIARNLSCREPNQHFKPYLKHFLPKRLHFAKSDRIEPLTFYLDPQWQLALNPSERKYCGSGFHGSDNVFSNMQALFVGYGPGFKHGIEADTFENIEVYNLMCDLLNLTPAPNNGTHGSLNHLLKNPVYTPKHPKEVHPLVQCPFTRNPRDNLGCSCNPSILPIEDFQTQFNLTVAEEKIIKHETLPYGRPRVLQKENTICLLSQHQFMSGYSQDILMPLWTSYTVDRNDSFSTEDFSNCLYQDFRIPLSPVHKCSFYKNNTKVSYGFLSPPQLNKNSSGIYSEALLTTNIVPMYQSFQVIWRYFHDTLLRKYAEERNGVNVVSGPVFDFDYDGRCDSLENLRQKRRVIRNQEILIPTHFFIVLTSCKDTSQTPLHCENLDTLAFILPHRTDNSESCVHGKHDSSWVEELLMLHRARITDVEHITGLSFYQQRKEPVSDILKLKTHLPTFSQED
Assay: ENPP1 enzymatic assay, cGAMP hydrolysis
Format: biochemical

Substance: QS1
- IC50: 142 nM
